Data from patent US20130012591A1, “PROPHYLAXIS OF SKIN CANCER WITH RETINAMIDES” (Revision Therapeutics, Inc., priority 2009, published 2013).
Entries after “also recorded” stand apart in the source; their conditions may differ.

Legend:
patients with dry AMD = assay: Incidence of all neoplasms and basal cell carcinoma in patients with dry AMD (Example 6); format: in vivo, human; details: for Basal Cell Carcinoma, number of patients: placebo 5 of 82; for Basal Cell Carcinoma, incidence: placebo 6.1%; for All neoplasms, number of patients: placebo 14 of 82; for All neoplasms, incidence: placebo 17.1%
Method: Patients with dry AMD were selected. Patients are divided into three groups. Group I (n=82) received a placebo. Group II (n=80) received fenretinide at a dose of 100 mg/day. Group III (n=84) received fenretinide at a dose of 300 mg/day. Incidence of all neoplasms and basal cell carcinoma was determined for each group.

[1] = tested on: complement genes (Crry, CFH, MCP-1, CD59a, Daf2, and CD59b); assay: Expression of complement genes in ocular tissue by RT-PCR; format: in vivo, BALB/c mice; details: RT-PCR normalized to 18S RNA
Method: The effects of fenretinide on expression of complement genes was studies in […].
Fenretinide supplemented chow ([…]), or control chow, was fed to pregnant mice. Birthed litters were maintained for 4 weeks. Mice were euthanized after 4 weeks and ocular tissue was prepared for RNA extraction. Expression of complement genes was determined by RT-PCR. Data was normalized to expression of 18S RNA.
Litters of mice were separated into 2 groups just prior to weaning (4 weeks of age). Mice in Group I were fed fenretinide supplemented chow (1 g fenretinide/kg chow) for 7 weeks. Mice in Group II were fed control chow for 7 weeks. Mice were euthanized after 7 weeks and ocular tissue was prepared for RNA extraction. Expression of complement genes was determined by RT-PCR. Data was normalized to expression of 18S RNA.

[2] = tested on: human that suffers from geographic atrophy (GA), secondary to age related macular degeneration (AMD); assay: Rate of skin neoplasms/cancer in patients with geographic atrophy secondary to AMD (Example 1); format: in vivo; details: orally 100 mg/day, placebo 9.8%
Method: Two patient cohorts were selected. Each member of each patient cohort was a human that suffers from geographic atrophy (GA), secondary to age related macular degeneration (AMD). The mean concentration of serum retinol binding protein in the patients at baseline was approximately 60 μg/mL. The average concentration of serum retinol binding protein in normal individuals of the same type is about 25 μg/mL to about 40 μg/mL. In the first patient population, individuals were orally administered 100 mg/day fenretinide. In the second patient population, individuals were orally administered a placebo. The placebo group developed skin neoplasms (including basal cell carcinoma, squamous cell carcinoma, and/or melanoma) at a rate of 9.8%. In the first patient population, individuals developed cancer (including basal cell carcinoma, squamous cell carcinoma, and/or melanoma) at a rate of 2.5%. […] FIG. 4 illustrates the cytotoxicity of fenretinide on the melanoma cell line (B16 (RL)). FIG. 5 illustrates the effect of fenretinide and compounds of Formula II (designated SIR-1001 and SIR-1005) on two human melanoma cell lines (M207 and SK-MEL28).

Sigma 1 receptor = molecular target: T1, Sigma 1 receptor (Cavia porcellus, UniProt Q60492); assay: Sigma 1 receptor binding assay with [3H](+)-pentazocine; details: competing ligand 10 μM; [3H](+)-pentazocine 1.0 nM or 0-10 nM; guinea pig brain membrane
T1 construct: guinea pig brain membrane aliquots were thawed, and then suspended at a concentration of 1 mg protein/ml; from tissue; host or cells: guinea pig brain membranes
Method: Sigma 1 receptor binding assays were performed according to DeHaven-Hudkins et al. (1992). In brief, guinea pig brain membrane aliquots were thawed, and then suspended at a concentration of 1 mg protein/ml by adding fresh sigma 1 assay buffer (50 mM Tris-HCl; pH 7.4, 25° C.). Each glass assay tube was kept at a final volume of 1.0 ml, contained 0.25 mg protein, and was incubated for 150 min at 37° C. with [3H](+)-pentazocine. [3H](+)-Pentazocine was used at either a single concentration (1.0 nM, FIG. 6) or at a range of concentrations (0-10 nM, FIG. 7). Nonspecific binding was defined by haloperidol (1.0 μM). Competing ligand concentration (e.g., fenretinide) was 10 μM. Assays were terminated by addition of ice-cold […] (5 ml) and filtration, using a cell harvester (Brandel, Gaithersburg, Md.), through glass fiber filters (GF/B) that had been pretreated with polyethyleneimine (0.5%) for 60 min. Tubes and filter discs were washed (3×3.5 ml) with ice-cold assay buffer, and the filter discs dried under vacuum. Scintillation counting was carried out after incubation of the discs with cocktail for at least 18 h.

T1 sequence (Q60492 whole entry): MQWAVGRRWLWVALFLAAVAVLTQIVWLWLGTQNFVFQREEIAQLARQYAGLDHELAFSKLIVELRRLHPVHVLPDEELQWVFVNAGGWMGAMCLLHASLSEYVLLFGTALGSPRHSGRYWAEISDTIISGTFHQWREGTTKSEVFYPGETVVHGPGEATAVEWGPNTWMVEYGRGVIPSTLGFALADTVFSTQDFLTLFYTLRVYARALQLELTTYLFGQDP

In the case of `CC1=C(/C=C/C(C)=C/C=C/C(C)=C/C(=O)Nc2ccc(O)cc2)C(C)(C)CCC1` [fenretinide, N-(4-hydroxyphenyl)retinamide], the “Basal Cell Carcinoma, number of patients” value (patients with dry AMD; 100 mg/day fenretinide, n = 80) is reported as 2, the “Basal Cell Carcinoma, incidence” value (patients with dry AMD; 100 mg/day fenretinide, n = 80) is reported as 2.5% and the “All neoplasms, number of patients” value (patients with dry AMD; 100 mg/day fenretinide, n = 80) is reported as 4. For the same molecule, the “All neoplasms, incidence” value (patients with dry AMD; 100 mg/day fenretinide, n = 80) was 5.0%, the “Basal Cell Carcinoma, number of patients” value (patients with dry AMD; 300 mg/day fenretinide, n = 84) was 3 and the “Basal Cell Carcinoma, incidence” value (patients with dry AMD; 300 mg/day fenretinide, n = 84) was 3.6%. The “All neoplasms, number of patients” value (patients with dry AMD; 300 mg/day fenretinide, n = 84) was 10, the “All neoplasms, incidence” value (patients with dry AMD; 300 mg/day fenretinide, n = 84) was 11.9% and the “expression of complement genes Crry, CFH, MCP-1, CD59a, CD59b, Daf2 in the eye” value ([1]; high dose: supplemented chow (Ig fenretinide/kg chow) fed to pregnant mice, litters maintained 4 weeks, FIG. 9) was “down-regulation; also recorded: down-regulates”. For the same molecule, the “expression of complement genes Crry, CFH, MCP-1, CD59a, CD59b, Daf2 in the eye” value ([1]; low dose: chow 1 g fenretinide/kg for 7 weeks from weaning, FIG. 8) was “up-regulation; also recorded: up-regulates”, the “rate at which individuals developed cancer (including basal cell carcinoma, squamous cell carcinoma, and/or melanoma)” value [2] was 2.5% and the “binding of [3H]Pentazocine to Sigma-1 receptor in the presence of competing ligand” value (Sigma 1 receptor) was “reduced binding”.
